In ChEMBL document CHEMBL1201862, “PubChem BioAssay data set” (2004):
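96-well plates; 48 h exposure; 5 concentrations. Endpoints by linear interpolation between flanking doses. Not reached: highest tested concentration assigned. GI50 is the concentration that inhibits growth by half.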 Active and inactive are the calls of the source. Rule as the data show it: active = GI50 up to about 1.1 µM and inactive = higher.

Experiments:
Test in all cases: NCI-60 cell line screen, 48 h
UO-31 = tested on: UO-31
NCI-H522 = tested on: NCI-H522
A549 = tested on: A549
NCI-H460 = tested on: NCI-H460
SNB-75 = tested on: SNB-75
MOLT-4 = tested on: MOLT-4
LOX IMVI = tested on: LOX IMVI
A498 = tested on: A498
NCI-H23 = tested on: NCI-H23
SF-539 = tested on: SF-539
HT-29 = tested on: HT-29
K562 = tested on: K562
MDA-N = tested on: MDA-N
RPMI-8226 = tested on: RPMI-8226
TK-10 = tested on: TK-10
KM12 = tested on: KM12
RXF 393 = tested on: RXF 393
BT-549 = tested on: BT-549
HCT-116 = tested on: HCT-116
MDA-MB-231 = tested on: MDA-MB-231

With CC(=O)Oc1ccc2c(C)cc(=O)oc2c1 the GI50 (UO-31) was > 100 µM (inactive), the GI50 (NCI-H522) was > 100 µM (inactive) and the GI50 (A549) was > 100 µM (inactive). For the same compound, the GI50 (NCI-H460) was > 100 µM (inactive), the GI50 (SNB-75) was > 100 µM (inactive) and the GI50 (MOLT-4) was > 100 µM (inactive). For the same compound, the GI50 (LOX IMVI) was > 100 µM (inactive), the GI50 (A498) was > 100 µM (inactive) and the GI50 (NCI-H23) was > 100 µM (inactive). The GI50 (SF-539) was > 100 µM (inactive), the GI50 (HT-29) was > 100 µM (inactive) and the GI50 (K562) was > 100 µM (inactive). For the same compound, the GI50 (MDA-N) was > 100 µM (inactive), the GI50 (RPMI-8226) was > 100 µM (inactive) and the GI50 (TK-10) was > 100 µM (inactive). For the same compound, the GI50 (KM12) was > 100 µM (inactive), the GI50 (RXF 393) was > 100 µM (inactive) and the GI50 (BT-549) was > 100 µM (inactive). The GI50 (HCT-116) was > 100 µM (inactive) and the GI50 (MDA-MB-231) was > 100 µM (inactive).

With Cn1c(=O)c2nc(CCCc3ccc([N+](=O)[O-])cc3)[nH]c2n(C)c1=O the GI50 (UO-31) was > 100 µM (inactive), the GI50 (NCI-H522) was > 100 µM (inactive) and the GI50 (A549) was > 100 µM (inactive). For the same compound, the GI50 (NCI-H460) was 91.2 µM (inactive), the GI50 (SNB-75) was > 100 µM (inactive) and the GI50 (MOLT-4) was 56.6 µM (inactive). For the same compound, the GI50 (LOX IMVI) was > 100 µM (inactive), the GI50 (A498) was > 100 µM (inactive) and the GI50 (NCI-H23) was > 100 µM (inactive). The GI50 (SF-539) was 38.5 µM (inactive), the GI50 (HT-29) was > 100 µM (inactive) and the GI50 (K562) was 31.2 µM (inactive). For the same compound, the GI50 (MDA-N) was > 100 µM (inactive), the GI50 (RPMI-8226) was > 100 µM (inactive) and the GI50 (TK-10) was > 100 µM (inactive). For the same compound, the GI50 (KM12) was > 100 µM (inactive), the GI50 (RXF 393) was > 100 µM (inactive) and the GI50 (BT-549) was > 100 µM (inactive). The GI50 (HCT-116) was > 100 µM (inactive) and the GI50 (MDA-MB-231) was > 100 µM (inactive).

N=c1oc2ccc(Cl)cc2cc1C(=O)Nc1ccccc1 was tested, and the GI50 (UO-31) was > 47 µM (inactive), the GI50 (NCI-H522) was 5.11 µM (inactive) and the GI50 (A549) was > 100 µM (inactive). The GI50 (NCI-H460) was > 100 µM (inactive), the GI50 (SNB-75) was 23.6 µM (inactive) and the GI50 (MOLT-4) was > 100 µM (inactive). For the same compound, the GI50 (LOX IMVI) was > 100 µM (inactive), the GI50 (A498) was > 100 µM (inactive) and the GI50 (NCI-H23) was > 48.5 µM (inactive). The GI50 (SF-539) was > 65.9 µM (inactive), the GI50 (HT-29) was > 100 µM (inactive) and the GI50 (K562) was 27 µM (inactive). The GI50 (MDA-N) was > 100 µM (inactive), the GI50 (RPMI-8226) was > 100 µM (inactive) and the GI50 (TK-10) was > 75.2 µM (inactive). The GI50 (KM12) was 79.4 µM (inactive), the GI50 (RXF 393) was 26.2 µM (inactive) and the GI50 (BT-549) was > 54 µM (inactive). For the same compound, the GI50 (HCT-116) was > 59 µM (inactive) and the GI50 (MDA-MB-231) was 53.8 µM (inactive).

CCOC(=O)CCC(NC(=O)c1ccc(Nc2cnc3ccc(C(F)(F)F)cc3n2)cc1)C(=O)OCC (stereo not given) was tested, and the GI50 (UO-31) was 45.5 µM (inactive), the GI50 (NCI-H522) was 65.6 µM (inactive) and the GI50 (A549) was > 34.6 µM (inactive). For the same compound, the GI50 (NCI-H460) was 8.02 µM (inactive), the GI50 (SNB-75) was 8.24 µM (inactive) and the GI50 (MOLT-4) was 2.2 µM (inactive). For the same compound, the GI50 (LOX IMVI) was 36.7 µM (inactive), the GI50 (A498) was 26.4 µM (inactive) and the GI50 (NCI-H23) was 35 µM (inactive). For the same compound, the GI50 (SF-539) was 13.3 µM (inactive), the GI50 (HT-29) was > 80.5 µM (inactive) and the GI50 (K562) was > 100 µM (inactive). For the same compound, the GI50 (MDA-N) was > 100 µM (inactive), the GI50 (RPMI-8226) was > 22.4 µM (inactive) and the GI50 (TK-10) was 4.97 µM (inactive). The GI50 (KM12) was 24.2 µM (inactive), the GI50 (RXF 393) was 15 µM (inactive) and the GI50 (BT-549) was 20.9 µM (inactive). For the same compound, the GI50 (HCT-116) was 14.5 µM (inactive) and the GI50 (MDA-MB-231) was 4.59 µM (inactive).

c1ccc(C(OCCN2CC3CCC(C2)N3)c2ccccc2)cc1 was tested, and the GI50 (UO-31) was 64 µM (inactive), the GI50 (NCI-H522) was 35.2 µM (inactive) and the GI50 (A549) was > 100 µM (inactive). For the same compound, the GI50 (NCI-H460) was 50.4 µM (inactive), the GI50 (SNB-75) was 50.1 µM (inactive) and the GI50 (MOLT-4) was 74.8 µM (inactive). For the same compound, the GI50 (LOX IMVI) was 66.4 µM (inactive), the GI50 (A498) was 74 µM (inactive) and the GI50 (NCI-H23) was > 100 µM (inactive). For the same compound, the GI50 (SF-539) was 82.4 µM (inactive), the GI50 (HT-29) was 31.6 µM (inactive) and the GI50 (K562) was 43.8 µM (inactive). For the same compound, the GI50 (MDA-N) was 26.4 µM (inactive), the GI50 (RPMI-8226) was 34.1 µM (inactive) and the GI50 (TK-10) was > 100 µM (inactive). For the same compound, the GI50 (KM12) was 54 µM (inactive), the GI50 (RXF 393) was 43.8 µM (inactive) and the GI50 (BT-549) was 22 µM (inactive). For the same compound, the GI50 (HCT-116) was 40.4 µM (inactive) and the GI50 (MDA-MB-231) was > 100 µM (inactive).

For O=C/C(=C(/Br)I)c1ccccc1, the GI50 (UO-31) was 4.97 µM (inactive), the GI50 (NCI-H522) was 1.78 µM (inactive) and the GI50 (A549) was 22.9 µM (inactive). The GI50 (NCI-H460) was 8.99 µM (inactive), the GI50 (SNB-75) was 5.45 µM (inactive) and the GI50 (MOLT-4) was 0.597 µM (active). The GI50 (LOX IMVI) was 3.81 µM (inactive), the GI50 (A498) was 18.6 µM (inactive) and the GI50 (NCI-H23) was 5.11 µM (inactive). The GI50 (SF-539) was 2.53 µM (inactive), the GI50 (HT-29) was 2.29 µM (inactive) and the GI50 (K562) was 0.624 µM (active). The GI50 (MDA-N) was 2.54 µM (inactive), the GI50 (RPMI-8226) was 2.25 µM (inactive) and the GI50 (TK-10) was 6.12 µM (inactive). The GI50 (KM12) was 6.61 µM (inactive), the GI50 (RXF 393) was 2.71 µM (inactive) and the GI50 (BT-549) was 2.42 µM (inactive). For the same compound, the GI50 (HCT-116) was 1.51 µM (inactive) and the GI50 (MDA-MB-231) was 2.56 µM (inactive).

For COC(=O)NC1C(C)OC(OC2C/C=C(/C)C3C=CC4C(OC5CC(OC6CC(O)C(OC7CC(O)C(OC)C(C)O7)C(C)O6)C(O)C(C)O5)C(C)CC(C)C4C3(C)C(=O)C3=C(O)C4(CC(C)C(CO)=CC4/C=C\2C)OC3=O)CC1(C)[N+](=O)[O-] (stereo not given), the GI50 (UO-31) was 17.1 µM (inactive), the GI50 (NCI-H522) was 5.69 µM (inactive) and the GI50 (A549) was 22.6 µM (inactive). The GI50 (NCI-H460) was 12.3 µM (inactive), the GI50 (SNB-75) was 19.7 µM (inactive) and the GI50 (MOLT-4) was 3.72 µM (inactive). For the same compound, the GI50 (LOX IMVI) was 11.5 µM (inactive), the GI50 (A498) was 15.6 µM (inactive) and the GI50 (NCI-H23) was 11.9 µM (inactive). The GI50 (SF-539) was 16.9 µM (inactive), the GI50 (HT-29) was 15.7 µM (inactive) and the GI50 (K562) was 4.41 µM (inactive). For the same compound, the GI50 (MDA-N) was 9.55 µM (inactive), the GI50 (RPMI-8226) was 3.13 µM (inactive) and the GI50 (TK-10) was 10 µM (inactive). The GI50 (KM12) was 14.5 µM (inactive), the GI50 (RXF 393) was 12.3 µM (inactive) and the GI50 (BT-549) was 13.5 µM (inactive). The GI50 (HCT-116) was 5.36 µM (inactive) and the GI50 (MDA-MB-231) was 12.6 µM (inactive).
